{"source": "patent US20120283269A1", "about": "“Method and Compositions for Suppression of Aging” (HEALTH RESEARCH INC., priority 2009, published 2012)", "key": {"[1]": {"tested_on": "mTOR pathway", "conditions": "previously reported (Demidenko 2009); cited from earlier work"}, "[2]": {"tested_on": "HT-p21-9 cells", "conditions": "previously reported (Demidenko 2009); cited from earlier work"}, "[3]": {"tested_on": "mTOR pathway", "assay": "Immunoblot for p53, p-S6, p-S6K in WI-38-tert fibroblasts", "format": "cell-based, human", "procedure": "(§1) FIG. 4. […] HT-p21-a cells were treated with IPTG and infected with Ad-p53. After 3 days, cells were photographed (original magnification ×200): Upper panel. Under blue light to visualize cells expressing p53 (green cells). Lower panel. Under visible light to visualize all cells. Red arrows indicate cells lacking p53 expression. All of these cells show large, flat cell morphology. Green arrows indicate cells expressing p53. b-d. […] After 1 day, cells were lysed and immunoblot was performed as described in Methods for Example 1. c. […] Cells were then stained for beta-Gal activity and microphotographed. Scale bar—50 μm.d. […] Cells were then trypsinized and counted. […] Results are shown as percent of control.\nFIG. 12. […] Immunoblot for p53, p-S6, p-S6K, S6 and actin was performed as described in Methods for Example 1.\nImmunoblot analysis. Proteins were separated on 4-15% gradient Tris-HCl gels (Bio-Rad). The following antibodies were used: mouse anti-actin from Santa Cruz Biotechnology, rabbit anti-phospho-S6 (Ser240/244) and (Ser235/236), mouse anti-S6, mouse anti-phospho-p70 S6 kinase (Thr389), mouse anti-p21 and anti-p53, rabbit anti-phospho-4E-BP1 (Thr37/46) from Cell Signaling; mouse anti-4E-BP1 from Invitrogen, mouse anti-p53 (Ab-6) from Calbiochem."}, "[4]": {"tested_on": "WI-38-tert cells", "assay": "Senescence / quiescence in WI-38-tert fibroblasts", "format": "cell-based, human", "conditions": "compound alone", "procedure": "as §1\nFIG. 11. Effects of Ad-p21 and Ad-p53 on senescent morphology in WI-38-tert fibroblasts. WI-38-tert cells were infected with either p21-expressing adenovirus (Ad-p21) or p53-expressing adenovirus (Ad-p53) or both. After 3 days, cells were stained for beta-Gal.\nCell lines and reagents. HT-p21-9 and HT-p21-a cells are derivatives of HT1080 human fibrosarcoma cells, where p21 expression can be turned on or off using isopropyl-thio-galactosidase (IPTG) (7, 16, 28, 29, 36). […] HT-p16 cells are derivatives of HT1080 cells in which p16 expression can be turned on or off using IPTG (16, 36). WI-38-Tert, WI-38 are fibroblasts immortalized by telomerase. HT-p21-GSE56 cells: p53 inhibiting peptide GSE56 (18) was introduced into HT1080 p21-9 cells via a retroviral vector LXSE (37). Cells were grown in high glucose DMEM with 10% FC2 serum. WI-38-tert cells were grown in low glucose DMEM with 10% FCS. Rapamycin was obtained from LC Laboratories (Woburn, Mass.). IPTG (final concentration of 50 μg/ml) and FC2 were obtained from Sigma-Aldrich (St. Louis, Mo.).\nBeta-galactosidase staining Beta-gal staining was performed using Senescence-galactosidase staining kit (Cell Signaling Technology)."}, "[5]": {"tested_on": "HT-p21 cells", "assay": "Cellular hypertrophy (protein and GFP per cell) in IPTG-treated HT-p21 cells, rapamycin dose response", "format": "cell-based, human", "conditions": "this particular cell line", "procedure": "(§2) FIG. 18. Correlation between S6 phosphorylation, hypertrophy and loss of proliferative potential in senescent cells. HT-p21 cells were plated in 6 well plates and treated with IPTG plus the increasing concentrations of rapamycin (from 0.16 to 500 nM). At concentration 0, cells were treated with IPTG alone. A. Cellular hypertrophy: protein and GFP. After 3 days, soluble protein and GFP were measured per well. [Note: in non-proliferating cells, protein/well is a measure of protein/cells]. Results are shown as percent of IPTG alone (0) without rapamycin. B. After 3 days, cells were lysed and immunobloted for p-S6, S6 and p21.\nCell lines and reagents. In HT-p21 cells, p21 expression can be turned on or off using […] (IPTG). HT-p21 cells were cultured in DMEM medium supplemented with FC2 serum. Rapamycin was obtained from LC Laboratories and dissolved in DMSO as 2 mM solution and was used at final concentration of 500 nM, unless otherwise indicated. IPTG and FC2 were obtained from Sigma-Aldrich (St. Louis, Mo.). IPTG was dissolved in water as 50 mg/ml stock solution and used in cell culture at final concentration of 50 μg/ml."}, "[6]": {"tested_on": "S6 phosphorylation, a marker of mTOR activity", "assay": "Immunoblot for p-S6, S6 and p21 in IPTG-treated HT-p21 cells, rapamycin", "format": "cell-based, human", "conditions": "IPTG plus rapamycin, 3 days", "procedure": "as §2\nFIG. 24. Induction of p21 by IPTG. HT-p21 cells were plated in 6 well plates and treated with IPTG with or without rapamycin as indicated. The next day, cells were lysed and immunoblot for p-S6, S and p21 was performed as described in Methods.\nImmunoblot analysis. Cells were lysed and soluble proteins were harvested as previously described. […] Cells were counted on a Coulter Z1 cell counter (Hialeah, Fla.). […] Plates were photographed and the number of colonies were determined as previously described. […] Thereafter, cells were washed in PBS, and the number of -galactosidase activity-positive cells (blue staining) were counted under bright field illumination."}, "[7]": {"tested_on": "HT-p21 cells", "assay": "Colony formation assay after IPTG with or without rapamycin", "format": "cell-based, human", "conditions": "IPTG plus rapamycin 3 days, washed; versus IPTG alone"}, "[8]": {"tested_on": "HT-p21 cells", "assay": "Preservation of proliferative competence (PC), cell counting after wash", "format": "cell-based, human", "procedure": "C. PC: preservation of proliferative competence. After 3 days, cells were washed to remove IPTG and RAPA. Cells were incubated for additional 5 days in the fresh medium and then were counted. Results are shown as percent of IPTG alone (0) without rapamycin.\nFIG. 20. The dynamics of cell numbers. 500 HT-p21 cells were plated in 12 well plates. On the next day, either IPTG alone (I) or IPTG plus rapamycin (I+R) were added. After 3 days, plates were washed (I/w and I+R/w) or left unwashed. Cells were counted at days 1, 3, 6 and 9. Upper panel: linear-scale. Lower panel: log-scale. Open and closed squares: IPTG and IPTG plus Rapa, respectively. Open and closed circles: IPTG washed (I/w) and IPTG plus Rapa washed (I+R/w), respectively.\nImmunoblot analysis. Cells were lysed and soluble proteins were harvested as previously described. Immunoblot analysis was performed using mouse monoclonal anti-p21, mouse monoclonal anti-phospho-S6 Ser240/244 (Cell Signaling, MA, USA), rabbit polyclonal anti-S6 (Cell Signaling, MA, USA) and mouse monoclonal anti-tubulin Ab as previously described. Cell counting. Cells were counted on a Coulter Z1 cell counter (Hialeah, Fla.). […] Plates were photographed and the number of colonies were determined as previously described. […] Thereafter, cells were washed in PBS, and the number of -galactosidase activity-positive cells (blue staining) were counted under bright field illumination."}}}
{"compound": "N#CC(=C(/N)Sc1ccccc1N)/C(C#N)=C(\\N)Sc1ccccc1N", "note": "[U0126]", "values": [{"measurement": "mTOR pathway in HT-p21-9 cells, measured by phosphorylation of S6", "setting": "[1]", "result": "deactivate the mTOR pathway"}, {"measurement": "cellular senescence", "setting": "[2]", "result": "suppress cellular senescence"}]}
{"compound": "COc1cccc2c1C(=O)c1c(O)c3c(c(O)c1C2=O)C[C@@](O)(C(=O)CO)C[C@@H]3O[C@H]1C[C@H](N)[C@H](O)[C@H](C)O1", "note": "[doxorubicin]", "values": [{"measurement": "inhibition of mTOR", "setting": "[3]", "result": "does not inhibit mTOR"}, {"measurement": "type of arrest in WI-38-tert cells", "setting": "[4]", "result": "caused senescence in WI-38-tert cells"}]}
{"compound": "CO[C@H]1C[C@@H]2CC[C@@H](C)[C@@](O)(O2)C(=O)C(=O)N2CCCC[C@H]2C(=O)O[C@H]([C@H](C)C[C@@H]2CC[C@@H](O)[C@H](OC)C2)CC(=O)[C@H](C)/C=C(\\C)[C@@H](O)[C@@H](OC)C(=O)[C@H](C)C[C@H](C)/C=C/C=C/C=C/1C", "note": "[rapamycin]", "values": [{"measurement": "concentration required for anti-hypertrophic effects", "setting": "[5]", "result": "100 to 500", "unit": "nM"}, {"measurement": "concentrations that inhibited S6 phosphorylation", "setting": "[6]", "result": "≥ 20", "unit": "nM"}, {"measurement": "increase in number of colonies (number of competent cells)", "setting": "[7]", "result": "~10", "unit": "fold"}, {"measurement": "doubling time of the competent cells", "setting": "[8]; I/w and I+R/w conditions", "result": "20 to 24", "unit": "h"}, {"measurement": "PC (preservation of competence)", "setting": "[8]; IPTG plus rapamycin 3 days, washed, 5 more days, percent of IPTG alone", "result": 800, "unit": "%"}]}
